The source of these data is the supplement of paper PMC10307832.

Assay in all cases: relative viability (nuclei count vs DMSO), 5 days (fraction); higher = more cells survive
Compound in experiment [1]: C1CC(C1)(C(=O)O)C(=O)O.[NH2-].[NH2-].[Pt+2] [Carboplatin] + COc1cccc2cc(-c3nc([C@H]4CC[C@H](C(=O)O)CC4)n4ncnc(N)c34)[nH]c12 [OSI-027] (partner 0.5 µM)
The gist of the method: (§1)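 Nuclei were stained with Hoechst during a one-step fixation (final 0.05% Triton X-100, 1% formaldehyde, 1 ug/ml Hoechst) carried out 5 days after dosing, then counted on 4× images. The cells, lung cancer lines in 1536-well plates, had been dosed by pin tool the day after seeding with one drug alone or a fixed anchor-drug dose plus five library-drug doses (not always all listed) in √10 steps. Relative viability is the nuclei count in treated wells divided by that in vehicle wells, and each value is the median of duplicate plates.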

Compound in experiment [2]: CC[C@H](C)N1C=C(C2=C(C=C(C=C21)C3=CN=C(C=C3)N4CCNCC4)C(=O)NCC5=C(C=C(NC5=O)C)C)C [GSK126] + CC(=O)Nc1cccc(-n2c(=O)n(C3CC3)c(=O)c3c(Nc4ccc(I)cc4F)n(C)c(=O)c(C)c32)c1 [Trametinib] (partner 0.02 µM)
In short, it runs like this: as §1

Compound in experiment [3]: NS(=O)(=O)OC[C@@H]1C[C@@H](n2ccc3c(N[C@H]4CCc5ccccc54)ncnc32)C[C@@H]1O [MLN4924] + CC1(C)CCC(c2ccc(Cl)cc2)=C(CN2CCN(c3ccc(C(=O)NS(=O)(=O)c4ccc(N[C@H](CCN5CCOCC5)CSc5ccccc5)c(S(=O)(=O)C(F)(F)F)c4)cc3)CC2)C1 [Navitoclax] (partner 0.5 µM)
The gist of the method: as §1

Compound in experiment [4]: NS(=O)(=O)OC[C@@H]1C[C@@H](n2ccc3c(N[C@H]4CCc5ccccc54)ncnc32)C[C@@H]1O [MLN4924] + O=C(c1cc(Cc2n[nH]c(=O)c3ccccc23)ccc1F)N1CCN(C(=O)C2CC2)CC1 [Olaparib] (partner 8 µM)
The gist of the method: as §1

In the case of UMC-11, the relative viability in experiment [1] (first compound 0.08 µM) amounted to 0.462; in experiment [1] (first compound 0.253 µM), 0.432; in experiment [1] (first compound 0.8 µM), 0.456; in experiment [1] (first compound 2.53 µM), 0.462; in experiment [1] (first compound 8 µM), 0.405; in experiment [2] (first compound 0.08 µM), 0.744. The relative viability turned out to be 0.774 in experiment [2] (first compound 0.253 µM); 0.771 in experiment [2] (first compound 0.8 µM); 0.714 in experiment [2] (first compound 2.53 µM); 0.728 in experiment [2] (first compound 8 µM); 0.198 in experiment [3] (first compound 0.04 µM); 0.142 in experiment [3] (first compound 0.1265 µM). In addition, the relative viability in experiment [3] (first compound 0.4 µM) turned out to be 0.167; in experiment [3] (first compound 1.265 µM) it was 0.1; in experiment [3] (first compound 4 µM), 0.112; in experiment [4] (first compound 0.04 µM), 0.408; in experiment [4] (first compound 0.1265 µM), 0.246; in experiment [4] (first compound 0.4 µM), 0.255. Also, the relative viability in experiment [4] (first compound 1.265 µM) was found to be 0.154; in experiment [4] (first compound 4 µM) it was 0.138.
